Reference: patent US11141419B1, “Use of iminosugars as prophylactic and therapy against COVID-19 / SARS-CoV-2” (priority 2020, dated 2021)
Where two headings read alike, the source gives them in different places.

Columns and labels:
[1] = system: Lentiviruses expressing SARS-CoV-2 spike glycoprotein (Wuhan isolate, P.1, B.1.1.7, B.1.351); assay type: cell-based; details: 100 μM iminosugar, 24 hrs pre-treatment, luciferase after 48 hrs
SARS-CoV-2/WA/1 virus = test: Plaque reduction assay in Vero E6 cells; assay type: cell-based; details: Vero E6 cells pre-treated and overlaid with iminosugar, 40 PFU, 48 hrs, duplicate wells, read-out: IC50 against SARS-CoV-2 (plaque formation)
SARS-CoV-2 virus = assay type: cell-based; details: Vero E6, MOI 0.01, 100 μM iminosugar, 24 hrs, supernatant
Huh7.0 human cells = test: Cell viability (MTS assay) of uninfected Huh7.0 cells; details: various concentrations, three days
SARS-CoV-2 = assay type: cell-based; details: Huh7.0, lower MOI (0.1), 250 μM, three days
COVID-19 = details: repurposed drug regimens; cited from earlier work
[2] = Severe acute respiratory syndrome coronavirus 2, Vero C1008

SMILES: OCCN1C[C@H](O)[C@@H](O)[C@H](O)[C@H]1CO [Miglitol, miglitol]
- pseudotyped SARS-CoV-2 viral entry into human 293t-hACE2 cells [1]: significant decrease
- IC50 (SARS-CoV-2/WA/1 virus; [2]): 135 µM
- SARS-CoV-2 viral RNA production / viral genome copy number (N1 gene PCR) (SARS-CoV-2 virus): significantly reduced
- toxicity to human cells (Huh7.0 human cells): without toxicity
- cell survival (SARS-CoV-2): completely restored

SMILES: C[C@H]1O[C@H](O[C@H]2[C@H](O)[C@@H](O)[C@@H](O[C@H]3[C@H](O)[C@@H](O)C(O)O[C@@H]3CO)O[C@@H]2CO)[C@H](O)[C@@H](O)[C@@H]1N[C@H]1C=C(CO)[C@@H](O)[C@H](O)[C@H]1O (some centres unmarked) [Acarbose, acarbose]
- IC50 (SARS-CoV-2/WA/1 virus; [2]): 105 µM

SMILES: O[C@H]1[C@H](O)[C@@H](O)CN2CC[C@H](O)[C@H]12 [Castanospermine, castanospermine]
- pseudotyped SARS-CoV-2 viral entry into human 293t-hACE2 cells [1]: significant decrease
- IC50 (SARS-CoV-2/WA/1 virus): 91 µM
- SARS-CoV-2 viral RNA production / viral genome copy number (N1 gene PCR) (SARS-CoV-2 virus): significantly reduced

SMILES: Cc1cccc(C)c1OCC(=O)N[C@@H](Cc1ccccc1)[C@@H](O)C[C@H](Cc1ccccc1)NC(=O)[C@H](C(C)C)N1CCCNC1=O [lopinavir]
- effect on hospitalized COVID-19 patients (COVID-19): little or no effect

SMILES: CCN(CCO)CCCC(C)Nc1ccnc2cc(Cl)ccc12 (centres unmarked) [hydroxychloroquine]
- effect on hospitalized COVID-19 patients (COVID-19): little or no effect
